Laboratory results reported in patent US8889874B2, “Imidazolone-chalcone derivatives as potential anticancer agent and process for the preparation thereof” (Council of Scientific and Industrial Research, priority 2010, dated 2014).
Like-named read-outs stand apart in the source and are kept apart here.

Assays:
Format in all cases: cell-based, human
[1] = system: Leukemia cancer cell lines; experiment: NCI anticancer screen, SRB assay, panel summary; conditions: Homo sapiens
Description: (§1) Some of biological activity studies were carried out at the National Cancer Institute (NCI), Maryland, USA.
(§2) The compounds were evaluated for anticancer activity against fifty three human cancer cells derived from nine cancer types (leukemia cell line, non-small-cell lung cell line, colon cell line, CNS cell line, melanoma cell line, ovarian cell line, prostate cell line, and breast cancer cell line) as shown in Table 1. For each compound, dose response curves for each cell line were measured at a minimum of five concentrations at 10 fold dilutions. A protocol of 48 h continuous drug exposure was used and a sulforhodamine B (SRB) protein assay was used to estimate cell viability or growth.

[2] = system: Melanoma cancer cell lines; experiment: NCI anticancer screen, SRB assay, panel summary; conditions: for GI50: Homo sapiens
Description: as §1, §2

[3] = system: Ovarian cancer cell lines; experiment: NCI anticancer screen, SRB assay, panel summary; conditions: Homo sapiens
Description: as §1, §2

Colon cancer cell lines = experiment: NCI anticancer screen, SRB assay, panel summary; conditions: for GI50: Homo sapiens
Description: as §1, §2

Breast cancer cell lines = experiment: NCI anticancer screen, SRB assay, panel summary; conditions: Homo sapiens
Description: as §1, §2

[4] = system: Non-small cell lung cancer cell lines; experiment: NCI anticancer screen, SRB assay, panel summary; conditions: Homo sapiens
Description: as §1, §2

Renal cancer cell lines = experiment: NCI anticancer screen, SRB assay, panel summary; conditions: Homo sapiens
Description: as §1, §2

[5] = system: Prostate cancer cell lines; experiment: NCI anticancer screen, SRB assay, panel summary
Description: as §1, §2

CNS cancer cell lines = experiment: NCI anticancer screen, SRB assay, panel summary; conditions: for GI50: Homo sapiens
Description: as §1, §2

U251 (CNS) = experiment: NCI anticancer screen, SRB assay, 48 h; conditions: Homo sapiens
How it was run: (§3)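 Sulforhodamine B protein assay read cell growth after 48 h of continuous compound exposure. Dose-response curves per cell line used at least five 10-fold-diluted concentrations, within a panel of fifty-three human lines from nine tumour types.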

SF-295 (CNS) = experiment: NCI anticancer screen, SRB assay, 48 h; conditions: Homo sapiens
How it was run: as §3

786-0 (renal) = experiment: NCI anticancer screen, SRB assay, 48 h; conditions: Homo sapiens
How it was run: as §3

[6] = system: A549/ATCC (non-small cell lung); experiment: NCI anticancer screen, SRB assay, 48 h; conditions: Homo sapiens
How it was run: as §3

RXF 393 (renal) = experiment: NCI anticancer screen, SRB assay, 48 h; conditions: Homo sapiens
How it was run: as §3

OVCAR-4 (ovarian) = experiment: NCI anticancer screen, SRB assay, 48 h; conditions: Homo sapiens
How it was run: as §3

[7] = system: RPMI-8226 (leukemia cell line); experiment: NCI anticancer screen, SRB assay, 48 h; conditions: Homo sapiens
How it was run: as §3

SK-MEL-28 (melanoma) = experiment: NCI anticancer screen, SRB assay, 48 h; conditions: Homo sapiens
How it was run: as §3

A498 (renal) = experiment: NCI anticancer screen, SRB assay, 48 h; conditions: Homo sapiens
How it was run: as §3

HCT-116 (colon) = experiment: NCI anticancer screen, SRB assay, 48 h; conditions: Homo sapiens
How it was run: as §3

UO-31 (renal) = experiment: NCI anticancer screen, SRB assay, 48 h; conditions: Homo sapiens
How it was run: as §3

MCF7 (breast) = experiment: NCI anticancer screen, SRB assay, 48 h; conditions: Homo sapiens
How it was run: as §3

SW-620 (colon) = experiment: NCI anticancer screen, SRB assay, 48 h; conditions: Homo sapiens
How it was run: as §3

SK-MEL-5 (melanoma) = experiment: NCI anticancer screen, SRB assay, 48 h; conditions: Homo sapiens
How it was run: as §3

[8] = system: NCI-H322M (non-small cell lung); experiment: NCI anticancer screen, SRB assay, 48 h; conditions: Homo sapiens
How it was run: as §3

PC-3 (prostate) = experiment: NCI anticancer screen, SRB assay, 48 h; conditions: Homo sapiens
How it was run: as §3

MDA-MB-435 (melanoma) = experiment: NCI anticancer screen, SRB assay, 48 h; conditions: Homo sapiens
How it was run: as §3

[9] = 48 h exposure, SRB, read-out: GI50
[10] = read-out: pGI50 (-log of molar concentration causing 50% inhibition of net cell growth) (converted)

COc1ccc(-c2cn(-c3cccc(C(=O)/C=C/c4ccc(O)c(OC)c4)c3)c(=O)[nH]2)cc1 [3b, 1-3-[(E)-3-(4-hydroxy-3-methoxyphenyl)-2-propenoyl]phenyl-4-(4-methoxyphenyl)-2,3-dihydro-1H-2-imidazolone]
GI50 ([1]; Leukemia panel, log of concentration in mol/L causing 50% inhibition of net cell growth, read-out: mean graph midpoint (MG_MID) of Log10 GI50 (converted)): 1.78 µM | LC50 ([1]; Leukemia panel, log of concentration leading to 50% net cell death, read-out: mean graph midpoint (MG_MID) of Log10 LC50 (converted)): 38 µM | GI50 ([1]; two leukemia cancer cell lines (RPMI-8226 and K-562), exposure at least 48 hrs, read-out: GI50, range over the panel): 1.35 to 2.35 µM | GI50 ([2]; Melanoma panel, log of concentration in mol/L causing 50% inhibition of net cell growth, read-out: mean graph midpoint (MG_MID) of Log10 GI50 (converted)): 4.07 µM | GI50 ([2]; nine melanoma cancer cell lines, exposure at least 48 hrs, read-out: GI50, range over the panel): 2.03 to 13.3 µM | mean graph midpoint (MG_MID) of Log10 LC50 ([2]; Melanoma panel, log of concentration leading to 50% net cell death): 4.13 | GI50 ([3]; Ovarian panel, log of concentration in mol/L causing 50% inhibition of net cell growth, read-out: mean graph midpoint (MG_MID) of Log10 GI50 (converted)): 3.89 µM | LC50 ([3]; Ovarian panel, log of concentration leading to 50% net cell death, read-out: mean graph midpoint (MG_MID) of Log10 LC50 (converted)): 100 µM | GI50 ([3]; six ovarian cancer cell lines, exposure at least 48 hrs, read-out: GI50, range over the panel): 2.56 to 6.08 µM | mean graph midpoint (MG_MID) of Log10 LC50 (Colon cancer cell lines; Colon panel, log of concentration leading to 50% net cell death): 4.33 | GI50 (Colon cancer cell lines; Colon panel, log of concentration in mol/L causing 50% inhibition of net cell growth, read-out: mean graph midpoint (MG_MID) of Log10 GI50 (converted)): 2.88 µM | GI50 (Colon cancer cell lines; seven colon cancer cell lines, exposure at least 48 hrs, read-out: GI50, range over the panel): 1.77 to 6.61 µM | GI50 (Breast cancer cell lines; Breast panel, log of concentration in mol/L causing 50% inhibition of net cell growth, read-out: mean graph midpoint (MG_MID) of Log10 GI50 (converted)): 4.17 µM | LC50 (Breast cancer cell lines; Breast panel, log of concentration leading to 50% net cell death, read-out: mean graph midpoint (MG_MID) of Log10 LC50 (converted)): 100 µM | GI50 (Breast cancer cell lines; five breast cancer cell lines, exposure at least 48 hrs, read-out: GI50, range over the panel): 3.18 to 5.25 µM | GI50 ([4]; Non-small cell lung panel, log of concentration in mol/L causing 50% inhibition of net cell growth, read-out: mean graph midpoint (MG_MID) of Log10 GI50 (converted)): 4.68 µM | LC50 ([4]; Non-small cell lung panel, log of concentration leading to 50% net cell death, read-out: mean graph midpoint (MG_MID) of Log10 LC50 (converted)): ≥ 100 µM | GI50 ([4]; nine non-small cell lung cancer cell lines, exposure at least 48 hrs, read-out: GI50, range over the panel): 2.85 to 13.4 µM | GI50 (Renal cancer cell lines; Renal panel, log of concentration in mol/L causing 50% inhibition of net cell growth, read-out: mean graph midpoint (MG_MID) of Log10 GI50 (converted)): 4.68 µM | LC50 (Renal cancer cell lines; Renal panel, log of concentration leading to 50% net cell death, read-out: mean graph midpoint (MG_MID) of Log10 LC50 (converted)): 95.5 µM | GI50 (Renal cancer cell lines; eight renal cancer cell lines, exposure at least 48 hrs, read-out: GI50, range over the panel): 3.4 to 6.08 µM | GI50 ([5]; Homo sapiens, log of concentration in mol/L causing 50% inhibition of net cell growth, read-out: mean graph midpoint (MG_MID) of Log10 GI50 (converted)): 3.02 µM | LC50 ([5]; Homo sapiens, log of concentration leading to 50% net cell death, read-out: mean graph midpoint (MG_MID) of Log10 LC50 (converted)): ≥ 100 µM | mean graph midpoint (MG_MID) of Log10 TGI ([5]; log of concentration resulting in total inhibition of net cell growth): 4.80 | mean graph midpoint (MG_MID) of Log10 LC50 (CNS cancer cell lines; CNS panel, log of concentration leading to 50% net cell death): 4.06 | GI50 (CNS cancer cell lines; CNS panel, log of concentration in mol/L causing 50% inhibition of net cell growth, read-out: mean graph midpoint (MG_MID) of Log10 GI50 (converted)): 4.68 µM | GI50 (CNS cancer cell lines; six CNS cancer cell lines, exposure at least 48 hrs, read-out: GI50, range over the panel): 2.25 to 13.9 µM | GI50 (U251 (CNS); U-251, 48 h exposure, SRB, read-out: GI50): 3.45 µM | GI50 (U251 (CNS); U-251, read-out: pGI50 (-log of molar concentration causing 50% inhibition of net cell growth) (converted)): 3.47 µM | GI50 (SF-295 (CNS); [9]): 13.9 µM | GI50 (SF-295 (CNS); [10]): 13.8 µM | GI50 (786-0 (renal); [9]): 4.53 µM | GI50 (786-0 (renal); [10]): 4.57 µM | GI50 [6, 9]: 4.14 µM | GI50 [6, 10]: 4.17 µM | GI50 (RXF 393 (renal); RXF 393, 48 h exposure, SRB, read-out: GI50): 5.85 µM | GI50 (RXF 393 (renal); RXF-393, read-out: pGI50 (-log of molar concentration causing 50% inhibition of net cell growth) (converted)): 5.89 µM | GI50 (OVCAR-4 (ovarian); [9]): 6.08 µM | GI50 (OVCAR-4 (ovarian); [10]): 6.03 µM | GI50 [7, 9]: 1.35 µM | GI50 [7, 10]: 1.35 µM | GI50 (SK-MEL-28 (melanoma); [9]): 2.03 µM | GI50 (SK-MEL-28 (melanoma); [10]): 2.04 µM | GI50 (A498 (renal); [9]): 3.72 µM | GI50 (A498 (renal); [10]): 3.72 µM | GI50 (HCT-116 (colon); [9]): 1.93 µM | GI50 (HCT-116 (colon); [10]): 1.95 µM | GI50 (UO-31 (renal); [9]): 5.19 µM | GI50 (UO-31 (renal); [10]): 5.25 µM | GI50 (MCF7 (breast); [9]): 3.18 µM | GI50 (MCF7 (breast); [10]): 3.16 µM | GI50 (SW-620 (colon); [9]): 2.5 µM | GI50 (SW-620 (colon); [10]): 2.51 µM | GI50 (SK-MEL-5 (melanoma); [9]): 2.63 µM | GI50 (SK-MEL-5 (melanoma); [10]): 2.63 µM | GI50 [8, 9]: 8.2 µM | GI50 [8, 10]: 8.13 µM | GI50 (PC-3 (prostate); PC-3, read-out: pGI50 (-log of molar concentration causing 50% inhibition of net cell growth) (converted)): 3.02 µM | GI50 (PC-3 (prostate); one prostate cancer cell line (PC-3), exposure at least 48 hrs, read-out: GI50): 3.05 µM | GI50 (MDA-MB-435 (melanoma); [9]): 3.35 µM | GI50 (MDA-MB-435 (melanoma); [10]): 3.39 µM
